Assay [1] addresses T1, 5-lipoxygenase (Rattus norvegicus, UniProt P12527).
T1 construct: leukemic basophilic granulocyte cells of rats (RBL-1, ATCC No. CRL 1378) were used as a 5-lipoxygenase enzyme source; host or cells: RBL-1 (rat basophilic leukemia cells)
T1 sequence (P12527 1-673): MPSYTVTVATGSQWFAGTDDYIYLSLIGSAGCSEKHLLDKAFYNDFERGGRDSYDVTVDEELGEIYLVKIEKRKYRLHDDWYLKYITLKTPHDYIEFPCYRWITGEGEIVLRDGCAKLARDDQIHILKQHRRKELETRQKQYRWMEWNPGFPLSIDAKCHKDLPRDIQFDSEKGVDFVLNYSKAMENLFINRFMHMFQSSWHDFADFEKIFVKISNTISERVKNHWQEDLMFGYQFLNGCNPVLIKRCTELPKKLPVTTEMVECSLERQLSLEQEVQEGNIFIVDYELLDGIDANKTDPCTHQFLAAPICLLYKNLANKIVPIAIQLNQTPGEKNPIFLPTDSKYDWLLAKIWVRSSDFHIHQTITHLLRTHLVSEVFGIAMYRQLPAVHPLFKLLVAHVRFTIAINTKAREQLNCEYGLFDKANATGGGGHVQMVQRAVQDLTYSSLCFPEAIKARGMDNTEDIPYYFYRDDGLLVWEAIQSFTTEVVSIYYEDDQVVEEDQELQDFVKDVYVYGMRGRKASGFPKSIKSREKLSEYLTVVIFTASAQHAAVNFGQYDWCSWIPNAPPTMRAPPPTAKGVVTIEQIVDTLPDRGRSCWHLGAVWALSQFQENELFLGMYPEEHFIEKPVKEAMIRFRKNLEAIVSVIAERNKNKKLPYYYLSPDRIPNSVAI
Nature of the assay: inhibiting action upon leukocyte 5-lipoxygenase (RBL-1 cells as enzyme source). The assay is classed as biochemical. The procedure: (§1) An inhibiting action of 2-n-heptyl-4-hydroxyquinoline-N-oxide upon lipoxygenase was determined by in vitro test according to the following procesure:
(b) Procedure for determining the inhibiting action upon leukocyte 5-lipoxygenase:
Determination was carried out according to modified B. A. Jakschik, et al, procedure (Biochem. Biophys. Res. Commun. 95, 103 (1980)). That is, leukemic basophilic granulocyte cells of rats (RBL-1, ATCC No. CRL 1378) were used as a 5-lipoxygenase enzyme source. The cells and 2-n-heptyl-4-hydroxyquinoline-N-oxide were brought into contact with each other in a 0.07 M tris hydrochloric acid buffer solution in the presence of 0.7 mM calcium chloride at 37° C. for 5 minutes, and then 20 μM of [^14 C]-arachidonic acid was added thereto. The mixture was incubated at 37° C. for 5 minutes. The reaction product was extracted with ethyl acetate/methanol/0.2M citric acid (30/4/1), and then separated by thin layer chromatography (developing solvent: petroleum ether/ethyl ether/acetic acid: 50/50/1). Spots of 5-hydroxy-[…]-eicosatetraenoic acid in the product were scraped off and ^14 C was measured by a liquid scintillation counter.
(§2) Inhibiting actions of compounds in Table 2 upon lipoxygenase were determined in the same manner as in Test Example 1.

For assay [2], the system named is SRS-A production. Nature of the assay: suppressing action upon production of SRS-A (lung pieces of actively sensitized guinea pigs, EWA challenge). Format: cell-based, guinea pig. Conditions: for inhibition at 8.3 µg/mL: 8.3 μg/ml; for suppression of the production of SRS-A (in words): Table 4, 8.3 μg/ml. On the procedure: An inhibiting action of 2-n-heptyl-4-hydroxyquinoline-N-oxide upon SRS-A production was determined according to the following procedure:
According to Watanabe-Kohno and Parker procedure (J. Immunol., 125, 946 (1980)), 20 mg of egg white albumin (hereinafter abbreviated as EWA), was dissolved in 10 ml of physiological saline solution, and the resulting solution was added to an equal volume of Freund's complete adjuvant to prepare an emulsion. Then, 1 ml of the emulsion was administered subcutaneously in the plantar surface of the hind paws of guinea pigs to make the animals actively sensitized. Three to five weeks thereafter, the guinea pigs were sacrified by exsanguination from the carotid artery, and the Tyrode's solution was perfused through right cardiac ventricle to wash lungs and remove blood. Then, the lungs were isolated and cut to pieces of about 2 mm size in the chilled Tyrode's solution with scissors, filtered through 2 sheets of gauze. Then, 400 mg of the fragments were distributed into individual test tubes containing 5 ml of the Tyrode's solution. The lung pieces were preincubated at 37° C. for 10 minutes, 0.5 ml of a test solution at various concentrations was added thereto, and the incubation was continued for 10 minutes at 37° C. Then, 0.5 ml of EWA (20 mg/ml) was added thereto, and the mixture was further incubated for 15 minutes. The reaction was discontinued by ice-cooling the mixture, and then the mixture was filtered through a sheet of gauze.
(§3) The amount of SRS-A in the filtrate was bioassayed using guinea pig ileum according to the Magnus procedure. That is, the ileums were suspended in 10 ml of organ bath filled with the Tyrode's solution (31 ±1° C., aerated with 95% O2 +5% CO2 gas mixture), and their movements were recorded on a recorder with a pen (Hitachi: QPD54) through an isotonic transducer (Nihon Koden: JD112S). After the ileum contraction reaction by 10^-7 M histamine was stabilized, 1 ml of the filtrate was added to the organ bath in the presence of 5 x 10^-7 M atropine and 10^-6 M tripelennamine to cause the ileum contraction reaction. It was known that the ileum contraction reaction by SRS-A was increased by repetitive applications and, therefore, after the reaction by at least 5 applications of the SRS-A prepared in advance became constant, control filtrate and a filtrate containing a test solution were used.
Suppressing actions of 2-n-propyl-4-hydroxyquinoline-N-oxide and 2-n-undecyl-4-hydroxyquinoline-N-oxide upon production of SRS-A were determined in the same manner as in Test Example 3.

The target of assay [3] is T2, 12-lipoxygenase (Bos taurus, UniProt F1MFA8).
T2 construct: a preparation prepared from bovine blood platelets was used as an enzyme source; from tissue; host or cells: bovine blood platelets
T2 sequence (F1MFA8 1-663): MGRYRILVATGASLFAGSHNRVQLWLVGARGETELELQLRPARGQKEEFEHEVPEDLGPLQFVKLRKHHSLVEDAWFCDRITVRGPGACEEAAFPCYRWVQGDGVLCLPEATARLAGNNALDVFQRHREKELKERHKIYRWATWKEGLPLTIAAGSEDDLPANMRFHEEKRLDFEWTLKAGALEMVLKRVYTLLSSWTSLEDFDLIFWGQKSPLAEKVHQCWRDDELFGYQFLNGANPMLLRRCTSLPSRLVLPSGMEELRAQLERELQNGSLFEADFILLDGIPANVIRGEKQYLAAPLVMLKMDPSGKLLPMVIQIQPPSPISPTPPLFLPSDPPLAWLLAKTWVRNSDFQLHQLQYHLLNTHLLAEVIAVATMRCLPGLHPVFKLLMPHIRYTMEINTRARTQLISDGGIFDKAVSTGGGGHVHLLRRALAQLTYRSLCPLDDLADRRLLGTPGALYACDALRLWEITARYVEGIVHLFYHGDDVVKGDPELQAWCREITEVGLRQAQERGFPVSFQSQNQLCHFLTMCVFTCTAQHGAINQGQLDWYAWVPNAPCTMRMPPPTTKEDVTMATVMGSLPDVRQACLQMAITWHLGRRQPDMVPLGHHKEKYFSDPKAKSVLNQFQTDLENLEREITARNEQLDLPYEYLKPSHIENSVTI
Briefly: inhibiting action upon blood platelet 12-lipoxygenase. Format: biochemical, bovine. Conditions: for inhibition at 1000 µM: pH 7.4, with 1,000 μM of each compound, read-out: 12-lipoxygenase, inhibiting ratio. On the procedure: as §1
(a) Procedure for determining the inhibiting action upon blood platelet 12-lipoxygenase:
Determination was carried out according to D. H. Nugtern, et al, procedure (Biochem. Biophys. Acta, 380, 299 (1975)). That is, a preparation prepared from bovine blood platelets was used as an enzyme source. The blood platelet lipoxygenase preparation and 2-n-heptyl-4-hydroxyguinoline-N-oxide were brought into contact with each other in a 0.01M tris hydrochloric acid buffer solution (pH 7.4) at 30° C. for 5 minutes in advance, and then 35 μM of [^14 C]arachidonic acid was added thereto. The mixture was incubated at 30° C. for 10 minutes. The reaction product was extracted with ethyl acetate/methanol/0.2M citric acid (30/4/1), and then separated by thin layer chromatography (developing solvent system: ligroin/ethyl ether/acetic acid: (50/50/1). The spot of 12-hydroxy-5,8,10,14-eicosatetraenoic acid in the product was scraped off and ^14 C was measured by a liquid scintillation counter.
as §2

The subject of assay [4] is airway contraction reaction of passively sensitized guinea pigs. Nature of the assay: suppressing action upon anaphylactic airway contraction reaction of passively sensitized guinea pigs. To be noted: 10 mg/kg P.O. one hour before antigen EWA (1 mg/kg); 6 guinea pigs vs 18 control. Format: in vivo, guinea pig. The procedure: Suppressing action of 2-n-heptyl-4-hydroxyquinoline-N-oxide upon the airway contraction reaction of passively sensitized guinea pigs was determined according to the following procedure:
Anaphylactic airway contraction reaction of passively sensitized guinea pigs by antigen administration was determined according to modified Konzett and Rossler procedure (Arch. exp. Path. Pharmakol., 195, 71 (1940)). Anti-EWA guinea pig serum (1 ml/animal) was intraperitoneally administered into normal guinea pigs to make the animals passively sensitized, and 24 hours thereafter, a tracheal cannule was inserted and fixed to the guinea pig under urethane anesthesia. An artificial respirator and a bronchospasm transducer were connected to the cannule. After the spontaneous respiration was stopped by intravenous injection of 10 mg/kg of gallamine triethiodide, 1 mg/kg of EWA was injected into the jugular vein to cause anaphylactic airway contraction, and the volume of air overflow from the tracheal cannule sideway was recorded on a polygraph through the transducer. After the end of measurement, the trachea was completely blockaded. The state of complete blockade was regarded as a maximum contraction, and the results were given in percentage to the maximum contraction.

Assay [5] deals with SRS-A. Nature of the assay: guinea pig ileum contraction reaction by SRS-A (Magnus procedure). To be noted: 3×10^-7 M. The procedure:
as §3

Where [6] appears, read: Cavia porcellus, read-out: Suppressing ratio, production of SRS-A.
Setting [7] is: Table 2, same manner as Test Example 1.

Where a name gives a salt, the structure may show the parent alone. Read-outs that look alike come from different tables or passages of the source.

In assay [1], `CCCCCCCc1cc(O)c2ccccc2[n+]1[O-]` [2-n-heptyl-4-hydroxyquinoline-N-oxide] gave an IC50 of 0.15 µM. The “inhibiting action upon 5-lipoxygenase compared with BW-755C” value in assay [1] (in words) was “much better in the present compound”. Besides, in assay [2] (4, 40, and 400 μg/ml), the “formation of SRS-A (in words)” value was “suppressed by application of 4, 40, and 400 μg/ml of the present compound in a dose dependent manner”. In assay [2] (setting [6]), the inhibition at 4 µg/mL is 26.2 ± 4.2%, the inhibition at 40 µg/mL is 60.1 ± 3.7% and the inhibition at 400 µg/mL amounted to 84.3 ± 1.1%. Also, the “intensity of SRS-A suppression compared with BW-755C” value in assay [2] (in words, measured at the same time) is “obviously better than the suppressing action of BW-755C”. The IC50 in assay [3] turned out to be 30 µM. Besides, in assay [3] (in words), the “inhibiting action upon 12-lipoxygenase compared with BW-755C” value is reported as “almost equal to that of known compound”. Moreover, in assay [4], the “suppression of airway contraction reaction (increase in air overflow)” value is on record as “significantly suppressed”.
Consider `CCCCCCCCCCCCCCCc1cc(O)c2ccccc2[n+]1[O-]` [2-n-pentadecyl-4-hydro-xy-quinoline-N--oxide], for which the midpoint of inhibition in assay [1] (setting [7]), the IC50, lay at 1 µM. The inhibition at 1000 µM in assay [3] (10 min) worked out at 56%.
In assay [1] (setting [7]), `CCCc1cc(O)c2ccccc2[n+]1[O-]` [2-n-propyl-4-hydroxyquinoline-N-oxide] yielded an IC50 of 110 µM. In addition, the inhibition at 8.3 µg/mL in assay [2] (setting [6]) turned out to be 34.1%. In assay [2], the “suppression of the production of SRS-A (in words)” value was “suppress the production of SRS-A”. Also, the inhibition at 1000 µM in assay [3] (10 min) is 46.3%.
Compound `CCCCCCCCCCCc1cc(O)c2ccccc2[n+]1[O-]` [2-n-undecyl-4-hydroxyquinoline-N-oxide] showed an IC50 in assay [1] (setting [7]) of 0.2 µM. In addition, the inhibition at 8.3 µg/mL in assay [2] (setting [6]) came out at 17.5%. Besides, the “suppression of the production of SRS-A (in words)” value in assay [2] was “suppress the production of SRS-A”. Moreover, the inhibition at 1000 µM in assay [3] (10 min) was 55.7%.
Turning to `NC1=NN(c2cccc(C(F)(F)F)c2)CC1` [BW-755C, 3-amino-1-(3-trifluoromethylphenyl)-2-pyrazoline hydrochloride, reference compound], in assay [2] (Cavia porcellus, 40 μg/ml, read-out: Suppressing ratio, production of SRS-A), the inhibition at 40 µg/mL came to 23.8 ± 8.8%. Moreover, the IC50 in assay [3] (bovine blood platelet preparation, 35 μM [14C]arachidonic acid, pH 7.4, 30° C., 10 min, read-out: IC50, 12-lipoxygenase) was 25 µM.
Turning to `CCCc1c(OCC(O)COc2ccc3c(=O)cc(C(=O)O)oc3c2CCC)ccc(C(C)=O)c1O` (centres unmarked) [FPL-55712], the “suppression of ileum contraction reaction by SRS-A” value in assay [5] is given as “almost completely suppressed”.

Values taken from patent US4618613A, “Preventive and healing composition for diseases due to lipoxygenase metabolic products” (Kyowa Hakko Kogyo Company, Ltd., priority 1983, dated 1986).
